Assay results published in patent publication US6906198B1, “Antipicornaviral compounds, their preparation and use” (Agouron Pharmaceuticals, Inc., priority 1998, dated 2005).
Like-named read-outs stand apart in the source and are kept apart here. Blank lines part the entries; values can stand above or below the compound they belong to.

How the values were obtained:
[1] = tested on: Echovirus type 11 (EV 11); experiment: Anti-echoviral cell culture assay (XTT), EV 11; assay type: cell-based; conditions: Enterovirus B, MRC5
Protocol: (§1) Anti-Echoviral and -Enteroviral Cell Culture Assays
(§2) Echovirus type 11 (EV 11) and enterovirus type 70 (EV 70) were purchased from ATCC (Rockville, Md.). Virus stocks were propagated and antiviral assays were performed in MRC-5 cells (ATCC). Cells were grown in minimal essential medium with 10% fetal bovine serum (Life Technologies, Gaithersburg, Md.).
(§3) The ability of compounds to protect cells against either EV 11 or EV 70 infection was measured by the XTT dye reduction method (Weislow et al., J. Natl. Cancer Inst. 1989, vol. 81, 577-586). MRC-5 cells were infected with EV 11 or EV 70 at an m.o.i. of 0.003 or 0.004, respectively, or mock-infected with medium only. Infected or uninfected cells were added at 1×10^4 cells per well and incubated with appropriate concentrations of compound. Four days later, XTT/PMS was added to test plates, and the amount of formazan produced was quantified spectrophotometrically at 450/650 nm. The EC50 was calculated as the concentration of compound that increased the formazan production in compound-treated, virus-infected cells to 50% of that produced by compound-free, uninfected cells. […] The therapeutic index (TI) was calculated by dividing the CC50 by the EC50. […]

HRV serotype 87 = experiment: Antirhinoviral H1-HeLa cell culture assay (XTT), HRV-87; assay type: cell-based; conditions: Human rhinovirus sp., H1-HeLa cells
Protocol: (§4) Antirhinoviral H1-HeLa Cell Culture Assay
(§5) In this cell protection assay, the ability of compounds to protect cells against HRV infection was measured by the XTT dye reduction method, which is described in Weislow et al., J. Natl. Cancer Inst. 1989, vol. 81, 577-586.
(§6) H1-HeLa cells were infected with HRV-14 at a multiplicity of infection (m.o.i.) of 0.13 (virus particles/cell) or mock-infected with medium only. Infected or mock-infected cells were resuspended at 8×10^5 cells per mL, and incubated with appropriate concentrations of the compounds to be tested. Two days later, XTT/PMS was added to test plates and the amount of formazan produced was quantified spectrophotometrically at 450/650 nm. The EC50 value was calculated as the concentration of compound that increased the percentage of formazan production in compound-treated, virus-infected cells to 50% of that produced by compound-free, mock-infected cells. The 50% cytotoxic dose (CC50) was calculated as the concentration of compound that decreased the percentage of formazan produced in compound-treated, mock-infected cells to 50% of that produced by compound-free, mock-infected cells. The therapeutic index (TI) was calculated by dividing the CC50 value by the EC50 value. […]

[2] = Cytotoxicity in uninfected H1-HeLa cells (anticoxsackieviral assay, XTT); assay type: cell-based; conditions: human; 50% cytotoxic dose, uninfected H1-HeLa cells (Table 4)
Protocol: (§7) Coxsackievirus types A-21 (CAV-21) and B3 (CVB-3) were purchased from American Type Culture Collection (ATCC, Rockville, Md.). Virus stocks were propagated and antiviral assays were performed in H1-HeLa cells (ATCC). Cells were grown in minimal essential medium with 10% fetal bovine serum (Life Technologies, Gaithersburg, Md.).
(§8) The ability of compounds to protect cells against either CAV-21 or CVB-3 infection was measured by the XTT dye reduction method. This method is described in Weislow et al., J. Natl. Cancer Inst. 1989, vol. 81, 577-586. H1-HeLa cells were infected with CAV-21 or CVB-3 at a multiplicity of infection (m.o.i.) of 0.025 or 0.075, respectively, or mock-infected with medium only. H1-HeLa cells were plated at 4×10^4 cells per well in a 96-well plate and incubated with appropriate concentrations of the test compound. One day (CVB-3) or two days (CAV-21) later, XTT/PMS was added to test plates and the amount of formazan produced was quantified spectrophotometrically at 450/650 nm. The EC50 was calculated as the concentration of compound that increased the formazan production in compound-treated, virus-infected cells to 50% of that produced by compound-free, uninfected cells. The 50% cytotoxic dose (CC50) was calculated as the concentration of compound that decreased formazan production in compound-treated, uninfected cells to 50% of that produced in compound-free, uninfected cells. The therapeutic index (TI) was calculated by dividing the CC50 by the EC50.

HRV serotype 10 = experiment: Antirhinoviral H1-HeLa cell culture assay (XTT), HRV-10; assay type: cell-based, human rhinovirus; conditions: Human rhinovirus sp., H1-HeLa cells
Protocol: as §4, §5
(§9) H1-HeLa cells were infected with HRV-14 at a multiplicity of infection (m.o.i.) of 0.13 (virus particles/cell) or mock-infected with medium only. Infected or mock-infected cells were resuspended at 8×10^5 cells per mL, and incubated with appropriate concentrations of the compounds to be tested. Two days later, XTT/PMS was added to test plates and the amount of formazan produced was quantified spectrophotometrically at 450/650 nm. The EC50 value was calculated as the concentration of compound that increased the percentage of formazan production in compound-treated, virus-infected cells to 50% of that produced by compound-free, mock-infected cells. The 50% cytotoxic dose (CC50) was calculated as the concentration of compound that decreased the percentage of formazan produced in compound-treated, mock-infected cells to 50% of that produced by compound-free, mock-infected cells. The therapeutic index (TI) was calculated by dividing the CC50 value by the EC50 value.
(§10) All strains of human rhinovirus (HRV) for use in this assay were purchased from American Type Culture Collection (ATCC), except for HRV serotype-14 (produced from the infectious cDNA clone constructed by Dr. Robert Rueckert, Institute for Molecular Virology, University of Wisconsin, Madison, Wis.). HRV stocks were propagated and viral assays were performed in H1-HeLa cells (ATCC). Cells were grown in minimal essential medium with 10% fetal bovine serum, available from Life Technologies (Gaithersburg, Md.).
(§11) The compounds were tested against control compounds WIN 51711, WIN 52084, and WIN 54954 (obtained from Sterling-Winthrop Pharmaceuticals), Pirodavir (obtained from Janssen Pharmaceuticals), and Pleconaril (prepared according to the method described in Diana et al., J. Med. Chem 1995, vol. 38, 1355). […]

[3] = tested on: Coxsackievirus type B3 (CVB-3); experiment: Anticoxsackieviral cell culture assay (XTT), CVB-3; assay type: cell-based; conditions: Coxsackievirus, H1-HeLa
Protocol: (§12) Anticoxsackieviral Cell Culture Assay
as §7
as §8, with “The 50% cytotoxic dose (CC50) was calculated as the concentration of compound that decreased formazan production in compound-treated, uninfected cells to 50% of that produced in compound-free, uninfected cells.” left out, “EC50. […]” for “EC50.”

HRV serotype 17 = experiment: Antirhinoviral H1-HeLa cell culture assay (XTT), HRV-17; assay type: cell-based; conditions: Human rhinovirus sp., H1-HeLa cells
Protocol: as §4, §5, §6

HRV serotype 3 = experiment: Antirhinoviral H1-HeLa cell culture assay (XTT), HRV-3; assay type: cell-based; conditions: Human rhinovirus sp., H1-HeLa cells
Protocol: as §4, §5, §6

[4] = Cytotoxicity in mock-infected H1-HeLa cells (antirhinoviral assay, XTT); assay type: cell-based; conditions: human, 50% cytotoxic dose
Protocol: as §9, §10

HRV serotype 89 = experiment: Antirhinoviral H1-HeLa cell culture assay (XTT), HRV-89; assay type: cell-based; conditions: Human rhinovirus sp., H1-HeLa cells
Protocol: as §4, §5, §6

HRV serotype 2 = experiment: Antirhinoviral H1-HeLa cell culture assay (XTT), HRV-2; assay type: cell-based; conditions: Human rhinovirus sp., H1-HeLa cells
Protocol: as §4, §5, §6

HRV serotype 12 = experiment: Antirhinoviral H1-HeLa cell culture assay (XTT), HRV-12; assay type: cell-based; conditions: Human rhinovirus sp., H1-HeLa cells
Protocol: as §4, §5, §6

[5] = tested on: Coxsackievirus type A-21 (CAV-21); experiment: Anticoxsackieviral cell culture assay (XTT), CAV-21; assay type: cell-based; conditions: Coxsackievirus, H1-HeLa
Protocol: as §12, §7
as §8, with “The 50% cytotoxic dose (CC50) was calculated as the concentration of compound that decreased formazan production in compound-treated, uninfected cells to 50% of that produced in compound-free, uninfected cells.” left out, “EC50. […]” for “EC50.”

[6] = tested on: enterovirus type 70 (EV 70); experiment: Anti-enteroviral cell culture assay (XTT), EV 70; assay type: cell-based; conditions: Enterovirus D, MRC5
Protocol: as §1, §2, §3

HRV serotype 38 = experiment: Antirhinoviral H1-HeLa cell culture assay (XTT), HRV-38; assay type: cell-based; conditions: Human rhinovirus sp., H1-HeLa cells
Protocol: as §4, §5, §6

HRV serotype 39 = experiment: Antirhinoviral H1-HeLa cell culture assay (XTT), HRV-39; assay type: cell-based; conditions: Human rhinovirus sp., H1-HeLa cells
Protocol: as §4, §5, §6

HRV serotype 13 = experiment: Antirhinoviral H1-HeLa cell culture assay (XTT), HRV-13; assay type: cell-based; conditions: Human rhinovirus sp., H1-HeLa cells
Protocol: as §4, §5, §6

HRV-14 = experiment: Antirhinoviral H1-HeLa cell culture assay (XTT), HRV-14; assay type: cell-based, human rhinovirus; conditions: Rhinovirus B, HRV14
Protocol: as §4, §5, §9, §10
The compounds were tested against control compounds WIN 51711, WIN 52084, and WIN 54954 (obtained from Sterling-Winthrop Pharmaceuticals), Pirodavir (obtained from Janssen Pharmaceuticals), and Pleconaril (prepared according to the method described in Diana et al., J. Med. Chem 1995, vol. 38, 1355). Antiviral data obtained for the test compounds are shown in Tables 1 and 3, where all data are for HRV serotype-14 unless otherwise noted in parentheses.

HRV serotype 25 = experiment: Antirhinoviral H1-HeLa cell culture assay (XTT), HRV-25; assay type: cell-based; conditions: Human rhinovirus sp., H1-HeLa cells
Protocol: as §4, §5, §6

HRV serotype 1A = experiment: Antirhinoviral H1-HeLa cell culture assay (XTT), HRV-1A; assay type: cell-based, human rhinovirus; conditions: Human rhinovirus sp., H1-HeLa cells
Protocol: as §4, §5, §9, §10, §11

HRV serotype 16 = experiment: Antirhinoviral H1-HeLa cell culture assay (XTT), HRV-16; assay type: cell-based; conditions: Human rhinovirus sp., H1-HeLa cells
Protocol: as §4, §5, §6

HRV serotype 9 = experiment: Antirhinoviral H1-HeLa cell culture assay (XTT), HRV-9; assay type: cell-based; conditions: Human rhinovirus sp., H1-HeLa cells
Protocol: as §4, §5, §6

HRV serotype 30 = experiment: Antirhinoviral H1-HeLa cell culture assay (XTT), HRV-30; assay type: cell-based; conditions: Human rhinovirus sp., H1-HeLa cells
Protocol: as §4, §5, §6

[7] = Cytotoxicity in uninfected MRC-5 cells (anti-echoviral/-enteroviral assay, XTT); assay type: cell-based; conditions: human, 50% cytotoxic dose
Protocol: as §2
The ability of compounds to protect cells against either EV 11 or EV 70 infection was measured by the XTT dye reduction method (Weislow et al., J. Natl. Cancer Inst. 1989, vol. 81, 577-586). MRC-5 cells were infected with EV 11 or EV 70 at an m.o.i. of 0.003 or 0.004, respectively, or mock-infected with medium only. Infected or uninfected cells were added at 1×10^4 cells per well and incubated with appropriate concentrations of compound. Four days later, XTT/PMS was added to test plates, and the amount of formazan produced was quantified spectrophotometrically at 450/650 nm. The EC50 was calculated as the concentration of compound that increased the formazan production in compound-treated, virus-infected cells to 50% of that produced by compound-free, uninfected cells. The 50% cytotoxic dose (CC50) was calculated as the concentration of compound that decreased formazan production in compound-treated, uninfected cells to 50% of that produced in compound-free, uninfected cells. The therapeutic index (TI) was calculated by dividing the CC50 by the EC50.

SMILES: CCOC(=O)/C=C/[C@H](C[C@@H]1CCNC1=O)NC(=O)[C@H](Cc1ccc(F)cc1)NC(=O)[C@@H](NC(=O)c1cc(C)on1)C(C)C [(A-5), Ethyl-3-{(5′-Methylisoxazole-3′-carbonyl)-L-Val-L-(4-F-Phe)-L-((S)-Pyrrol-Ala)}-E-Propenoate]
EC50 [1]: 80 nM
EC50 (HRV serotype 87): 210 nM
CC50 [2]: > 10000 nM
EC50 (HRV serotype 10): 50 nM
EC50 [3]: 1000 nM
EC50 (HRV serotype 17): 20 nM
EC50 (HRV serotype 3): 50 nM
CC50 at 2 days [4]: > 10000 nM
EC50 (HRV serotype 89): 20 nM
EC50 (HRV serotype 2): 10 nM
EC50 (HRV serotype 12): 60 nM
EC50 [5]: 230 nM
EC50 [6]: 40 nM
EC50 (HRV serotype 38): 130 nM
EC50 (HRV serotype 39): 20 nM
EC50 (HRV serotype 13): 20 nM
EC50 (HRV-14; HRV serotype-14, H1-HeLa cells (Table 1), read-out: Cell Protection EC50): 5 nM
EC50 (HRV-14; HRV serotype-14, H1-HeLa cells (Table 3), read-out: EC50): 5 nM
melting point: 219 to 220 °C
EC50 (HRV serotype 25): 180 nM
EC50 (HRV serotype 1A): 30 nM
EC50 (HRV serotype 16): 20 nM
EC50 (HRV serotype 9): 40 nM
EC50 (HRV serotype 30): 60 nM
CC50 at 4 days [7]: > 10000 nM

EC50 (HRV serotype 87): 590 nM
EC50 (HRV serotype 12): 70 nM
EC50 (HRV serotype 38): 170 nM
EC50 (HRV serotype 25): 200 nM
EC50 (HRV serotype 30): 90 nM
SMILES: CCOC(=O)/C=C/[C@H](C[C@@H]1CCNC1=O)NC(=O)[C@H](Cc1ccc(F)cc1)NC(=O)[C@@H](NC(=O)c1cc(C)on1)C(C)(C)C [(A-7), Ethyl-3-{(5′-Methylisoxazole-3′-carbonyl)-L-α-(t-Butyl-Gly)-L-(4-F-Phe)-L-((S)-Pyrrol-Ala)}-E-Propenoate]
CC50 at 2 days [4]: > 10000 nM
